Details of data set [1]: method as in PMID 26092760. To be noted: rats, single oral administration of berberine 200 mg/kg; cited from earlier work.
For data set [2] the following is noted: human subjects, single oral dose of 500 mg of berberine hydrochloride, cited from earlier work; for time after which the plasma level reaches a plateau: plateau persisted up to 24 h.
The nature of data set [3]: Solubility of berberine in NADES and reference solvents (HPLC-DAD). It counts as physicochemical. The procedure:
Samples were placed on a magnetic stirrer (Stuart, Bibby Scientific Ltd., Stone, Staffordshire, UK) at 22 °C for 1 h, then centrifuged for 21 min at 13,000 rpm with a 5415 R centrifuge (Eppendorf, Hamburg, Germany). For quantitative measurement of solubilized berberine, a portion (100 μL) of the clear supernatant obtained after centrifugation was diluted 1:5 (v/v) in ethanol.
For quantification, stock standard solution of berberine (100 μg/mL) was prepared dissolving the analytical standard in methanol using an ultrasonic bath. A calibration curve was obtained injecting standard solutions of berberine at different concentrations, namely 50, 25, 10, 5 and 1 μg/mL. The following calibration curve was obtained: […] (R^2 = 0.9997). The Limit of Quantification (LOQ) was 1 μg/mL.
For HPLC-DAD analysis, an Agilent series 1260 HPLC instrument (Agilent, Cernusco Sul Naviglio, MI, Italy) equipped with a quaternary pump, a diode-array detector, an auto sampler and a column oven compartment was used. Analyses were performed on Eclipse XDB C8 column (5 μm, 4.6 mm × 150 mm, Agilent). The mobile phase was (A) water–formic acid (99:1 v/v) and (B) acetonitrile. A gradient program was used as follows: 0 → 11th min: A:B (90:10) → A:B (0:100) 11 → 12th min: A:B (0:100) → A:B (0:100) 12 → 12, 10th min: A:B (0:100) → A:B (90:10) 12, 10 → 14th min: A:B (90:10) → A:B (90:10). The mobile phase flow rate was 1 mL/min and the injection volume was 10 μL. The chromatogram was recorded at 350 nm and spectral data for all peaks were obtained in the range of 190–400 nm. The retention time of berberine under these analysis conditions was 6.16 min.

Another data set deals with rat. To be noted: cited from earlier work.
A further data set concerns mice. The settings on record: cited from earlier work.

Data on seven compounds can be found in paper PMC6150298, “Natural Deep Eutectic Solvents (NADES) to Enhance Berberine Absorption: An In Vivo Pharmacokinetic Study” (Molecules : A Journal of Synthetic Chemistry and Natural …, 2017).

In general, solubility refers to how much of the substance goes into solution per volume. A low value points to little dissolved substance. As for `COc1ccc2cc3[n+](cc2c1OC)CCc1cc2c(cc1-3)OCO2` [berberine, Berberine], the “total recovery of native compounds” value in data set [1] is recorded as 22.83%. Also, in data set [2], the plasma levels entry is given as “lower than 0.1 nM” and the “time after which the plasma level reaches a plateau” value is “one”. This compound also displayed a solubility at 1 h in data set [3] (water, 22 °C) of 2100 µg/mL. Consider `COc1cc2c(cc1O)CC[n+]1cc3c(OC)c(OC)ccc3cc1-2` [jatrorrhizine], for which, in data set [2], the plasma levels entry is on record as “lower than 0.1 nM” and the “time after which the plasma level reaches a plateau” value is on record as 2 h. The LD50 is the dose at which mortality reaches 50%. As for `CC(O)C(=O)O` (centres unmarked) [lactic acid], the median lethal dose (LD50) in the data set on rat is 3543 mg/kg.

With `O=C(O)CC(O)C(=O)O` (centres unmarked) [malic acid], the median lethal dose (LD50) in the data set with rat was 1600 mg/kg. For the compound `NC(N)=O` [urea], the LD50 with mice is 11,000 mg/kg. In the case of Ethanol, the “Berberine Solubility at 22 °C” value in data set [3] came out at 2750 ± 50 µg/mL. The same measure, in the same setting: then Water, with 2100 ± 50 µg/mL.
